These results are taken from PMC12591484 (PLOS One, 2025).

Common to all, as to test: Drug protection from pCMBS modification (SCAMP)
What all share (assay type): cell-based

The target of experiment [1] is T1, α1β3M286Cγ2L GABAA receptors (Homo sapiens, UniProt P14867+P18507+P28472, M311C).
T1 construct: expressed in transfected cells; host or cells: Xenopus oocytes injected with capped mRNA, 1α:1β:5γ
The settings on record: β3M286C (β+); pCMBS 1 µM x 30 s; […] etomidate, 8 µM R-mTFD-MPAB or 10 µM pTFD-di-iPr-BnOH; n = 5. On the procedure: (§1) Experiments were performed in ND-96 buffer at room temperature (20–22°C). Oocytes were placed in a low-volume (30µl) flow chamber and impaled with borosilicate microelectrodes filled with 3M KCl (resistance 0.5–3 MΩ) and voltage-clamped at −50 mV (model OC-725C; Warner Instruments, Hamden, CT, USA). Superfusate solutions in ND-96 were delivered at 2 ml/min from glass syringe reservoirs via computer-controlled valves (VC-8; Warner Instruments), a micro-manifold (ALA-VM8; ALA Scientific Instruments, Farmingdale, NY, USA), and PTFE tubing. Currents were digitized at 200 Hz on a computer running ClampEx v8.0 software (Molecular Devices, San Jose, CA, USA). Digitized traces were filtered with a 10-Hz low-pass Bessel function, leak corrected and analyzed for peak amplitude off-line using Clampfit v8 software (Molecular Devices).
(§2) Drug protection from pCMBS modification was assessed under pCMBS exposure conditions that produced approximately half of the maximal modification ratio for each mutant receptor, and a least a value of 3. This approach balanced the magnitude of functional modification signals (smaller with less pCMBS exposure) against the challenge of using a reversibly bound ligand to competitively block an irreversible covalent cysteine-modifying reaction. […] Each oocyte was used in a single SCAMP experiment. […] Etomidate was used as a positive control for anesthetic protection in α1M236C and β3M286C mutants and as a negative control in α1S270C, α1A291C, β3L231C, γ2S301C, γ2I242C, and γ2L246C mutants. R-mTFD-MPAB was used as a positive control in α1S270C, α1A291C, β3L231C, and γ2LS301C mutants and as a negative control in α1M236C and β3M286C mutants. For each cysteine mutant and protective drug combination, five oocytes were studied.
(§3) Non-linear least squares fits and statistical analyses were performed in Prism 10.4.0. (GraphPad Software, San Diego, CA, USA). […] Protection (steric inhibition of pCMBS modification) was inferred when anesthetics produced significant reductions in modification ratios relative to control (no anesthetic) values. The statistical significance threshold was p < 0.05.

The target of experiment [2] is T2, α1β3L231Cγ2L GABAA receptors (Homo sapiens, UniProt P14867+P18507+P28472, L256C).
T2 construct: expressed in transfected cells; host or cells: Xenopus oocytes injected with capped mRNA, 1α:1β:5γ
The settings on record: β3L231C (β–); pCMBS 100 µM x 30 s; […] etomidate, 8 µM R-mTFD-MPAB or 10 µM pTFD-di-iPr-BnOH; n = 5. On the procedure: as §1, §2, §3

The target in experiment [3] is T3, α1β3γ2S301C GABAA receptors (Homo sapiens, UniProt P14867+P18507+P28472, S340C).
T3 construct: expressed in transfected cells; host or cells: Xenopus oocytes injected with capped mRNAs mixed 1α:1β:5γ
T3 sequence (P14867 28-456): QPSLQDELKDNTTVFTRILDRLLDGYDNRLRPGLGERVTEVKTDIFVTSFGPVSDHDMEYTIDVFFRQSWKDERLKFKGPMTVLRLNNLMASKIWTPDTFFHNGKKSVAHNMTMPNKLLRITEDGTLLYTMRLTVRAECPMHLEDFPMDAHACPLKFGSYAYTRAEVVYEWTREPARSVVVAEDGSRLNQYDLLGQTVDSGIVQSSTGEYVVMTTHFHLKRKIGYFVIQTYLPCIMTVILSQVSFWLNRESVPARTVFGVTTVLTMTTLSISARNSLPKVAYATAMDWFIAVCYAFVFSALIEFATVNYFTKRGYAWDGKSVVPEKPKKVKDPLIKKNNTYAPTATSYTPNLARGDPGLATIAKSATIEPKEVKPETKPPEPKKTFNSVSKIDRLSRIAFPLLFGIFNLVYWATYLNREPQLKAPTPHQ
T3 sequence (P28472 26-473): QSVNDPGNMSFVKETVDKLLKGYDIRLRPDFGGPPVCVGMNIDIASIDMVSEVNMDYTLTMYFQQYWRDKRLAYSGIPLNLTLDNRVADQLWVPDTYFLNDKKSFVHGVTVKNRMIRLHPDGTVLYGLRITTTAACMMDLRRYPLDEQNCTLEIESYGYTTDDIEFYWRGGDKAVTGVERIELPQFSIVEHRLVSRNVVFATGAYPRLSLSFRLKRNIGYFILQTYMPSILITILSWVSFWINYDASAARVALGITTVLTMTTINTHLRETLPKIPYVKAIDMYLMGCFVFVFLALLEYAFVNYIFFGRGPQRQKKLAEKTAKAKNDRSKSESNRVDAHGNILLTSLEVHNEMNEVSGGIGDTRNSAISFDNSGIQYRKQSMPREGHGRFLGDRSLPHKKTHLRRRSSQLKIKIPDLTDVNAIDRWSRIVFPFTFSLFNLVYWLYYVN
T3 sequence (P18507 40-475 S340C): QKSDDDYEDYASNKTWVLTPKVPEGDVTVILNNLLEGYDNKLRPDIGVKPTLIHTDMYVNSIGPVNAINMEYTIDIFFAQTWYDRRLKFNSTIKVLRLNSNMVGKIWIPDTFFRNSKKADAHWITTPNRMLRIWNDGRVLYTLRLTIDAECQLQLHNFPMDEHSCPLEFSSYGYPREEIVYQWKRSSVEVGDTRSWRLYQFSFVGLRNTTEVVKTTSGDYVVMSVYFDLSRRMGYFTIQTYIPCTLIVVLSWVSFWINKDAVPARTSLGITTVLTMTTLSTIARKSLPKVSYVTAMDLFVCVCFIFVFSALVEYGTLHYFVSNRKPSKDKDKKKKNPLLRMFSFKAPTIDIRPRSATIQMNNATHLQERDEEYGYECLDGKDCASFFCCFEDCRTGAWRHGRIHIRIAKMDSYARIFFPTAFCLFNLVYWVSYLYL
The settings on record: γ2S301C (γ+); pCMBS 100 µM x 90 s; […] etomidate, 8 µM R-mTFD-MPAB or 10 µM pTFD-di-iPr-BnOH; n = 5. As to the method: as §1, §2, §3

Experiment [4] has as its target T4, α1S270Cβ3γ2L GABAA receptors (Homo sapiens, UniProt P14867+P18507+P28472, S297C).
T4 construct: expressed in transfected cells; host or cells: Xenopus oocytes injected with capped mRNA, 1α:1β:5γ
The following applies: α1S270C (α+); pCMBS 1 µM x 90 s; […] etomidate, 8 µM R-mTFD-MPAB or 10 µM pTFD-di-iPr-BnOH; n = 5. As to the method:
as §1, §2, §3

T4 sequence (P14867 28-456 S297C, one chain of several): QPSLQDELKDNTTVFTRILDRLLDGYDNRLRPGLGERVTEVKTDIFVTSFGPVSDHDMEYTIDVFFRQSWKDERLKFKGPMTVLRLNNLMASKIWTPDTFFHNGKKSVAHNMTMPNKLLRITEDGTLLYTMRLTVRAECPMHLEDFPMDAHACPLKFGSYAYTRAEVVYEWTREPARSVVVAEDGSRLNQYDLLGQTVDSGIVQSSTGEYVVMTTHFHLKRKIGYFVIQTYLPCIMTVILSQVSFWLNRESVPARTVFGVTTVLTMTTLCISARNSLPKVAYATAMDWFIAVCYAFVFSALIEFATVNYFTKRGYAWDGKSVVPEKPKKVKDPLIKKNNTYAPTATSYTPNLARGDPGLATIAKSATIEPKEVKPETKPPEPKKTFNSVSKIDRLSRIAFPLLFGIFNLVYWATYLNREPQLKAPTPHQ
T4 sequence (P18507 40-475, one chain of several): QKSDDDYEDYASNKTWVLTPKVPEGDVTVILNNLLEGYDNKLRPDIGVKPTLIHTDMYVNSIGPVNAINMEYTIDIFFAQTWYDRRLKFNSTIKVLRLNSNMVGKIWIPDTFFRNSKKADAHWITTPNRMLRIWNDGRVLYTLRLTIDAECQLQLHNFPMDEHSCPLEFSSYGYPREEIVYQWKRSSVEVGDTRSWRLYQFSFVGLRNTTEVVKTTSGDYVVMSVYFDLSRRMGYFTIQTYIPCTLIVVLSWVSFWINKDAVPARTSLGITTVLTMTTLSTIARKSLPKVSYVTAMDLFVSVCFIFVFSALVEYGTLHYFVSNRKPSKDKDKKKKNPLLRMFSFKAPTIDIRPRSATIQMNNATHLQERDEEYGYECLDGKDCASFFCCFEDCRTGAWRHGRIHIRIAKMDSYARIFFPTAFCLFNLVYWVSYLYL
T1 sequence (P28472 26-473 M311C, one chain of several): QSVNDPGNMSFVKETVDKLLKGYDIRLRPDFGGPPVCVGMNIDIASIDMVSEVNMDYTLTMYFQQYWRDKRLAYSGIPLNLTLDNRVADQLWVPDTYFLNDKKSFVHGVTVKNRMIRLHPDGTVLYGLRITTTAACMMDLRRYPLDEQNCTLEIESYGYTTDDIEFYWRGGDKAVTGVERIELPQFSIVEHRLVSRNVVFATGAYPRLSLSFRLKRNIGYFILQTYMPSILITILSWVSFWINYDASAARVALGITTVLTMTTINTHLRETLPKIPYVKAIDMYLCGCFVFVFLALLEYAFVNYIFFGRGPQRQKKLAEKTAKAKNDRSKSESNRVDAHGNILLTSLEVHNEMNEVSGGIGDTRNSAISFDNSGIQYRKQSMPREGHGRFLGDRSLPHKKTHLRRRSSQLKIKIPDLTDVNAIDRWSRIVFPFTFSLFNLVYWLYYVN
T1 sequence (P18507 40-475, one chain of several): as the sequence (P18507 40-475, one chain of several) above
T2 sequence (P28472 26-473 L256C, one chain of several): as the sequence (P28472 26-473 M311C, one chain of several) above, with L231C, C286M counted along it
T2 sequence (P18507 40-475, one chain of several): as the sequence (P18507 40-475, one chain of several) above

Turning to `CCOC(=O)c1cncn1[C@H](C)c1ccccc1` [etomidate, R-etomidate], in experiment [1], the “protection from pCMBS modification (significant reduction of modification ratio vs control, p < 0.05)” value is “protection was inferred”.

On to `C=CCC1(c2cccc(C3(C(F)(F)F)N=N3)c2)C(=O)NC(=O)N(C)C1=O` (stereo not shown) [R-mTFD-MPAB, R-5-allyl-1-methyl-5-(m-trifluoromethyl-diazirynylphenyl) barbituric acid], for which the “protection from pCMBS modification (significant reduction of modification ratio vs control, p < 0.05)” value was “protection was also inferred” in experiment [2], “protection was inferred” in experiment [3] and “protection was inferred” in experiment [4].
